The text below walks through data of ChEMBL document CHEMBL5550223, “Restoration of the Lost Human Beta Defensin-1 Protein in Cancer as a Strategy to Improve the Efficacy of Chemotherapy” (J Med Chem, 2024).

Activity calls are given as the source filed them. No cut-off for these calls is given here. Positions of bridges follow the written chain, without caps; N, C: chain ends. Residues, ends and D or L forms follow the SMILES beside them. Where only a bound is given, the exact number is not on record here.

Data set [1] relates to MDA-MB-231. Description: Activation of CD95 cell death pathway in Fas-resistant human MDA-MB-231 cells pretreated for 6 hrs followed by treated with anti-Fas antibody assessed as increase in CD95 expression measured after 24 hrs by FACS analysis. In kind it is functional, cell-based. On the technique in general: In flow cytometry, cells or beads pass a laser one at a time.

The test system of data set [2] is PC-3. Put plainly: Cytotoxicity against human PC-3 cells assessed as dead cells at 30 uM measured after 24 to 72 hrs by FACS based Calcein A/EtBr-dimer LIVE/DEAD cell staining kit. In kind it is functional. The settings on record: time 24-72 hrs.
Data set [3] relates to PC-3. Description: Cytotoxicity against human PC-3 cells assessed as dead cells at 60 uM measured after 24 to 72 hrs by FACS based Calcein A/EtBr-dimer LIVE/DEAD cell staining kit. In kind it is functional. To be noted: time 24-72 hrs.
Data set [4] relates to PC-3. Description: Cytotoxicity against human PC-3 cells assessed as dead cells measured after 24 to 72 hrs by FACS based Calcein A/EtBr-dimer LIVE/DEAD cell staining kit. In kind it is functional.
The subject of data set [5] is MDA-MB-231. Put plainly: Cytotoxicity against human MDA-MB-231 cells assessed as cell death measured by MTT assay. In kind it is functional, cell-based.
The test system of data set [6] is PC-3. Put plainly: Cytotoxicity against human PC-3 cells assessed as cell death measured by MTT assay. In kind it is functional, cell-based. Background: Tetrazolium dyes change colour on reduction, which living cells bring about.
The test system of data set [7] is DU-145. Description: Cytotoxicity against human DU-145 cells assessed as cell death measured by MTT assay. The class given is functional, cell-based.
Data set [8] deals with LNCaP. Put plainly: Cytotoxicity against human LNCaP cells assessed as cell death measured by MTT assay. In kind it is functional, cell-based.
A short description of data set [9]: Cytotoxicity against human ABC-TC3995 cells assessed as cell death measured by MTT assay. The class given is functional, cell-based.
Data set [10] in a line: Cytotoxicity against human iPSC cells assessed as cell death measured by MTT assay. The class given is functional, cell-based.
Data set [11] relates to MDA-MB-231. Put plainly: Cytotoxicity against human MDA-MB-231 cells assessed as cell death in presence of doxorubicin measured by MTT assay. In kind it is functional, cell-based.
The test system of data set [12] is PC-3. Put plainly: Cytotoxicity against human PC-3 cells assessed as cell death in presence of doxorubicin measured by MTT assay. The class given is functional, cell-based.
Data set [13] has as its system DU-145. Put plainly: Cytotoxicity against human DU-145 cells assessed as cell death in presence of doxorubicin measured by MTT assay. In kind it is functional, cell-based.
The test system of data set [14] is LNCaP. Put plainly: Cytotoxicity against human LnCAP cells assessed as cell death in presence of doxorubicin measured by MTT assay. The class given is functional, cell-based.
Data set [15] can be described thus: Cytotoxicity against human ABC-TC3995 cells assessed as cell death in presence of doxorubicin measured by MTT assay. The class given is functional, cell-based.
Data set [16] in a line: Cytotoxicity against human iPSC cells assessed as cell death in presence of doxorubicin measured by MTT assay. The class given is functional, cell-based.
In data set [17] the test system is MDA-MB-231. Put plainly: Cytotoxicity against human MDA-MB-231 cells assessed as cell death in presence of docetaxel measured by MTT assay. The class given is functional, cell-based.
Data set [18] has as its system PC-3. Put plainly: Cytotoxicity against human PC-3 cells assessed as cell death in presence of docetaxel measured by MTT assay. The class given is functional, cell-based.
In data set [19] the test system is DU-145. Put plainly: Cytotoxicity against human DU-145 cells assessed as cell death in presence of docetaxel measured by MTT assay. The class given is functional, cell-based.
In data set [20] the test system is LNCaP. Description: Cytotoxicity against human LNCaP cells assessed as cell death in presence of docetaxel measured by MTT assay. The class given is functional, cell-based.
Data set [21] is described as follows: Cytotoxicity against human ABC-TC3995 cells assessed as cell death in presence of docetaxel measured by MTT assay. The class given is functional, cell-based.
A short description of data set [22]: Cytotoxicity against human iPSC cells assessed as cell death in presence of docetaxel measured by MTT assay. The class given is functional, cell-based.
Data set [23] relates to MDA-MB-231. Description: Synergistic cytotoxicity against Fas-resistant human MDA-MB-231 cells assessed as cell death at 10 uM in presence of 1 to 3 ug/ml doxorubicin measured after 24 to 72 hrs by fluorescent microscopy. The class given is functional, cell-based. The settings on record: time 24-72 hrs.
The subject of data set [24] is MDA-MB-231. Description: Synergistic cytotoxicity against Fas-resistant human MDA-MB-231 cells assessed as cell death at 10 uM in presence of 3 ug/ml doxorubicin measured after 24 to 72 hrs by fluorescent microscopy. In kind it is functional. To be noted: time 24-72 hrs.
Data set [25] deals with MDA-MB-231. Put plainly: In vivo antitumor activity against human MDA-MB-231 cells expressing FLuc-EGFP fusion protein xenografted in NOD-SCID mouse assessed as tumor regression at 50 mg/kg, ip measured upto day 13 by optical imaging based assay relative to control. The class given is functional, organism-based. The settings on record: time 13.0 day. On the technique in general: Xenograft models place foreign cells or tissue in a host animal.

Data set [26] concerns MDA-MB-231. Put plainly: In vivo antitumor activity against human MDA-MB-231 cells expressing FLuc-EGFP fusion protein xenografted in NOD-SCID mouse assessed as tumor regression at 100 mg/kg, ip measured upto day 13 by optical imaging based assay relative to control. In kind it is functional, organism-based. The settings on record: time 13.0 day.
In data set [27] the test system is MDA-MB-231. Description: In vivo antitumor activity against human MDA-MB-231 cells expressing FLuc-EGFP fusion protein xenografted in NOD-SCID mouse assessed as tumor regression at 200 mg/kg, ip measured upto day 13 by optical imaging based assay relative to control. In kind it is functional, organism-based. The settings on record: time 13.0 day.
Data set [28] has as its system MDA-MB-231. Put plainly: In vivo antitumor activity against human MDA-MB-231 cells expressing FLuc-EGFP fusion protein xenografted in NOD-SCID mouse assessed as loss of cellularity of tumor at 200 mg/kg, ip measured upto day 13 by H and E staining based assay. The class given is functional, organism-based.
Data set [29] in a line: Toxicity in NOD-SCID mouse xenografted in human MDA-MB-231 cells assessed as heart histology at 200 mg/kg, ip measured upto day 13 by H and E staining based assay. The class given is organism-based. To be noted: in vivo.
Data set [30] can be described thus: Toxicity in NOD-SCID mouse xenografted in human MDA-MB-231 cells assessed as liver histology at 200 mg/kg, ip measured upto day 13 by H and E staining based assay. The class given is organism-based. The settings on record: in vivo.
Data set [31] in a line: Toxicity in NOD-SCID mouse xenografted in human MDA-MB-231 cells assessed as kidney histology at 200 mg/kg, ip measured upto day 13 by H and E staining based assay. The class given is organism-based. To be noted: in vivo, 312 h, time 13 day.

Take `CC[C@H](C)[C@H](NC(=O)[C@H](CCCCN)NC(=O)[C@@H](NC(=O)[C@H](Cc1ccccc1)NC(=O)[C@@H](NC(=O)[C@@H]1CCCN1C(=O)[C@H](CS)NC(=O)[C@H](C)NC(=O)[C@H](CO)NC(=O)[C@H](Cc1ccc(O)cc1)NC(=O)[C@H](CC(C)C)NC(=O)[C@H](CS)NC(=O)[C@H](CCC(N)=O)NC(=O)CNC(=O)CNC(=O)[C@H](CO)NC(=O)[C@H](CO)NC(=O)[C@@H](NC(=O)[C@H](CS)NC(=O)[C@H](CC(N)=O)NC(=O)[C@H](Cc1ccc(O)cc1)NC(=O)[C@H](Cc1c[nH]cn1)NC(=O)[C@@H](N)CC(=O)O)C(C)C)[C@@H](C)CC)[C@@H](C)O)C(=O)N[C@@H](CCC(N)=O)C(=O)NCC(=O)N[C@H](C(=O)N[C@@H](CS)C(=O)N[C@@H](Cc1ccc(O)cc1)C(=O)N[C@@H](CCCNC(=N)N)C(=O)NCC(=O)N[C@@H](CCCCN)C(=O)N[C@@H](C)C(=O)N[C@@H](CCCCN)C(=O)N[C@@H](CS)C(=O)N[C@@H](CS)C(=O)N[C@@H](CCCCN)C(=O)O)[C@@H](C)O` (H-DHYNCVSSGGQCLYSACPIFTKIQGTCYRGKAKCCK-OH): the result in the data set with MDA-MB-231 [1] was inactive.
As for `CC[C@H](C)[C@@H]1NC(=O)[C@H](CCCCN)NC(=O)[C@H]([C@@H](C)O)NC(=O)[C@H](Cc2ccccc2)NC(=O)[C@H]([C@@H](C)CC)NC(=O)[C@@H]2CCCN2C(=O)[C@@H]2CSSC[C@@H]3NC(=O)[C@H](CCCCN)NC(=O)[C@H](C)NC(=O)[C@H](CCCCN)NC(=O)CNC(=O)[C@H](CCCNC(=N)N)NC(=O)[C@H](Cc4ccc(O)cc4)NC(=O)[C@H](CSSC[C@H](NC(=O)[C@H](CCC(N)=O)NC(=O)CNC(=O)CNC(=O)[C@H](CO)NC(=O)[C@H](CO)NC(=O)[C@H](C(C)C)NC(=O)[C@@H](NC(=O)[C@H](CC(N)=O)NC(=O)[C@H](Cc4ccc(O)cc4)NC(=O)[C@H](Cc4c[nH]cn4)NC(=O)[C@@H](N)CC(=O)O)CSSC[C@@H](C(=O)N[C@@H](CCCCN)C(=O)O)NC3=O)C(=O)N[C@@H](CC(C)C)C(=O)N[C@@H](Cc3ccc(O)cc3)C(=O)N[C@@H](CO)C(=O)N[C@@H](C)C(=O)N2)NC(=O)[C@H]([C@@H](C)O)NC(=O)CNC(=O)[C@H](CCC(N)=O)NC1=O` (H-DHYNCVSSGGQCLYSACPIFTKIQGTCYRGKAKCCK-OH; disulfide 5-35, 12-27, 17-34), the Activity in the data set with PC-3 [2] is 63.4%; with PC-3 [3], 97.2%; in the data set with MDA-MB-231 [24], more than 90%; in the data set with MDA-MB-231 [1], “Dose-Dependent Effect”; in data set [29], “Non-Toxic”; in data set [30], “Non-Toxic”. In data set [31], the Activity entry was “Non-Toxic”. In addition, the IC50 with PC-3 [4] is 20 µM; in the data set on MDA-MB-231 [5], 24.5 µM; in the data set on PC-3 [6], 26.5 µM; in the data set on DU-145 [7], 5.8 µM; with LNCaP [8], 12.4 µM; in data set [9] it was more than 250 µM. The IC50 in data set [10] was more than 250 µM; in the data set with MDA-MB-231 [11], 3.8 µM; with PC-3 [12], 0.95 µM; in the data set on DU-145 [13], 0.25 µM; in the data set on LNCaP [14] it was 0.11 µM; in [15], 89.5 µM. The IC50 in [16] was 94.5 µM; in the data set on MDA-MB-231 [17], 6.5 µM; with PC-3 [18] it was 1.2 µM; in the data set with DU-145 [19], 0.45 µM; with LNCaP [20], 0.15 µM; in data set [21], 78.6 µM. The 50% inhibitory concentration (IC50) in data set [22] was 84.5 µM. For the same compound, the outcome in the data set on MDA-MB-231 [23], in the data set on MDA-MB-231 [26], in the data set with MDA-MB-231 [27] and in the data set on MDA-MB-231 [28] was Active. Also, in the data set on MDA-MB-231 [25], the result was inactive.
On to `CC(=O)O[C@@]12CO[C@@H]1C[C@H](O)[C@@]1(C)C(=O)[C@H](O)C3=C(C)[C@@H](OC(=O)[C@H](O)[C@@H](NC(=O)OC(C)(C)C)c4ccccc4)C[C@@](O)([C@@H](OC(=O)c4ccccc4)[C@H]21)C3(C)C` [DOCETAXEL ANHYDROUS], for which the IC50 amounted to 38.9 µM in the data set on MDA-MB-231 [5]; 12.5 µM in the data set on PC-3 [6]; 5.4 µM in the data set with DU-145 [7]; 12.3 µM with LNCaP [8]; 16.5 µM in [9]; 18.6 µM in data set [10].
As for `COc1cccc2c1C(=O)c1c(O)c3c(c(O)c1C2=O)C[C@@](O)(C(=O)CO)C[C@@H]3O[C@H]1C[C@H](N)[C@H](O)[C@H](C)O1` [DOXORUBICIN], the IC50 was 46.5 µM with MDA-MB-231 [5]; 17.5 µM in the data set on PC-3 [6]; 12.4 µM in the data set with DU-145 [7]; 1.07 µM in the data set on LNCaP [8]; 12.5 µM in [9]; 6.8 µM in [10].

In general, IC50 refers to the point on the concentration scale where inhibition reaches its midpoint.
